The text below walks through data of the supplement of paper PMC10307832.

Compound in the assay “GW-2580 + Bortezomib”: COC1=CC=C(C=C1)COC2=C(C=C(C=C2)CC3=CN=C(N=C3N)N)OC [GW-2580] + CC(C)C[C@H](NC(=O)[C@H](Cc1ccccc1)NC(=O)c1cnccn1)B(O)O [Bortezomib] (partner 0.002 µM)
As to the kind of experiment: relative viability (nuclei count vs DMSO), 5 days (fraction); higher = more cells survive. The method in brief: (§1)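 Lung cancer cell lines, seeded in 1536-well plates, were treated the following day by pin tool with a single drug or with five library-drug doses (not always all listed) in √10 steps on top of a fixed anchor-drug dose. Cells were fixed and nuclei stained in one step after 5 days, and nuclei were counted. Relative viability is the nuclei count for treated wells divided by that for vehicle wells, reported as medians of duplicate plates.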

Compound in the assay “GW-2580 + OSI-027”: COC1=CC=C(C=C1)COC2=C(C=C(C=C2)CC3=CN=C(N=C3N)N)OC [GW-2580] + COc1cccc2cc(-c3nc([C@H]4CC[C@H](C(=O)O)CC4)n4ncnc(N)c34)[nH]c12 [OSI-027] (partner 0.5 µM)
Described as above. The method in brief:
as §1

On to UMC-11, for which the relative viability stood at 0.793 with GW-2580 + Bortezomib (first compound 0.08 µM); 0.758 in the assay with GW-2580 + Bortezomib (first compound 0.8 µM); 0.788 in the assay with GW-2580 + Bortezomib (first compound 2.53 µM); 0.603 with GW-2580 + Bortezomib (first compound 8 µM); 0.531 in the assay with GW-2580 + OSI-027 (first compound 0.08 µM); 0.508 in the assay with GW-2580 + OSI-027 (first compound 0.8 µM). Further, the relative viability amounted to 0.515 with GW-2580 + OSI-027 (first compound 2.53 µM) and 0.439 in the assay with GW-2580 + OSI-027 (first compound 8 µM).
